Consider eleven compounds from ChEMBL document CHEMBL1201862, “PubChem BioAssay data set” (2004).

Among the test systems are K562; Hs-578T; HOP-62; UACC-257; RXF 393; T47D; SF-268; NCI-H23; Malme-3M; SNB-19; HCT-116; MDA-MB-435; BT-549; EKVX; OVCAR-8; A549; KM12; U-251; LOX IMVI; SF-539.
What all share (test): growth of human tumour cells (NCI), 48 h

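Exposure lasted 48 hours, with cells grown in 96-well plates and compounds tested at five concentrations. At the GI50, growth is halved.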 Activity calls are given as the source filed them. Cut-off read from the data, not from the text of the source: active = GI50 up to about 1.1 µM and inactive = higher. Where only a bound is given, the exact number is not on record here.

As for `COc1cc(NCc2ccc3n2-c2ccccc2OC3)cc(OC)c1OC`, the GI50 in the assay on K562 is 8.36 µM (inactive); with Hs-578T, 35.4 µM (inactive); in the assay on HOP-62, 43.5 µM (inactive); in the assay with UACC-257, 20.1 µM (inactive); in the assay with RXF 393, 24.6 µM (inactive); in the assay with T47D, 37.2 µM (inactive). Besides, the GI50 in the assay on SF-268 is 46.5 µM (inactive); with NCI-H23 it was 35.2 µM (inactive); in the assay with Malme-3M, 15.1 µM (inactive); with SNB-19 it was 69 µM (inactive); in the assay with HCT-116, 27.8 µM (inactive); in the assay with MDA-MB-435, 14 µM (inactive). Further, the GI50 in the assay on BT-549 is 24.2 µM (inactive); with EKVX it was 9.71 µM (inactive); with OVCAR-8, 31 µM (inactive); in the assay on A549 it was 17.6 µM (inactive); with KM12 it was 40.7 µM (inactive); with U-251, 18.4 µM (inactive). Further, in the assay with LOX IMVI, the GI50 is 10.4 µM (inactive).
Regarding `CSc1ncnc2c1cnn2Cc1cn(COCCO)nn1`, the GI50 in the assay on K562 was 38.4 µM (inactive); in the assay on Hs-578T, > 100 µM (inactive); with HOP-62, 64.7 µM (inactive); in the assay on UACC-257, > 100 µM (inactive); in the assay on RXF 393, 46.6 µM (inactive); in the assay on T47D, > 100 µM (inactive). For the same compound, the GI50 in the assay on SF-268 is > 100 µM (inactive); with NCI-H23, 49.7 µM (inactive); in the assay on Malme-3M, > 100 µM (inactive); in the assay on SF-539, > 100 µM (inactive); in the assay with SNB-19, > 100 µM (inactive); with HCT-116, 45.4 µM (inactive). In addition, the GI50 in the assay with MDA-MB-435 was 11.1 µM (inactive); with BT-549 it was > 100 µM (inactive); with A549, 51.8 µM (inactive); in the assay with KM12, 23.2 µM (inactive); in the assay with U-251, 64.1 µM (inactive); in the assay with LOX IMVI, 80.7 µM (inactive).
`CCOC(=O)c1sc(N/N=C2\NC(=O)/C(=C/c3ccc([N+](=O)[O-])cc3)S2)nc1C`: the GI50 with Hs-578T is 33.9 µM (inactive); with HOP-62, 17.2 µM (inactive); in the assay on UACC-257, 15.6 µM (inactive); in the assay on RXF 393, 26.8 µM (inactive); in the assay with T47D, 15.1 µM (inactive); in the assay on SF-268 it was 27.5 µM (inactive). For the same compound, the GI50 in the assay on NCI-H23 is 24.4 µM (inactive); with SF-539 it was 18.7 µM (inactive); in the assay on SNB-19, 32.6 µM (inactive); in the assay with HCT-116, 16.8 µM (inactive); in the assay with MDA-MB-435 it was 23.8 µM (inactive); in the assay with BT-549, 24 µM (inactive). For the same compound, the GI50 in the assay on EKVX was 15.7 µM (inactive); in the assay with OVCAR-8, 22.4 µM (inactive); with A549, 28.3 µM (inactive); with KM12, 15.5 µM (inactive); in the assay with U-251 it was 26.1 µM (inactive); with LOX IMVI, 19.8 µM (inactive).
For the compound `CC(NC(=N)N)C(=O)O` (stereo unspecified), the GI50 in the assay with K562, with Hs-578T, with HOP-62, with UACC-257, in the assay with RXF 393 and in the assay on T47D was > 100 µM (inactive) in each case. For the same compound, the GI50 with SF-268, in the assay on NCI-H23, with Malme-3M, in the assay with SNB-19, with HCT-116 and in the assay with MDA-MB-435 was > 100 µM (inactive) in each case. Also, the GI50 with BT-549, in the assay on EKVX, in the assay with OVCAR-8, in the assay on A549, in the assay with KM12 and in the assay with U-251 was > 100 µM (inactive) in each case. Also, the GI50 in the assay on LOX IMVI is > 100 µM (inactive).
Take `CCOP(=O)(/C=C\n1ccc(N)nc1=O)OCC`: the GI50 with K562 was > 100 µM (inactive); with Hs-578T, 0.349 µM (active); in the assay on HOP-62, > 100 µM (inactive); with UACC-257, > 100 µM (inactive); in the assay on RXF 393, > 100 µM (inactive); in the assay with T47D, > 100 µM (inactive). Moreover, the GI50 in the assay on SF-268, with NCI-H23, in the assay on SF-539, in the assay with SNB-19, in the assay with HCT-116 and with MDA-MB-435 was > 100 µM (inactive) in each case. Moreover, the GI50 in the assay with BT-549, in the assay with EKVX, in the assay with OVCAR-8, in the assay on A549, with KM12 and with U-251 was > 100 µM (inactive) throughout. For the same compound, the GI50 in the assay with LOX IMVI was > 100 µM (inactive).
With `CC1(C)CC2C=C(C=O)C3(C=O)CC3(C)C2C1` (stereo unspecified), the GI50 in the assay on K562 was 1.1 µM (active); in the assay on Hs-578T it was 2.24 µM (inactive); with HOP-62, 2.09 µM (inactive); in the assay on UACC-257, 2.38 µM (inactive); in the assay on RXF 393 it was 1.94 µM (inactive); in the assay with T47D it was 1.33 µM (inactive). Moreover, the GI50 was 3.88 µM (inactive) in the assay with SF-268; 1.83 µM (inactive) with NCI-H23; 1.95 µM (inactive) in the assay on SF-539; 11.8 µM (inactive) in the assay with SNB-19; 0.847 µM (active) in the assay on HCT-116; 1.75 µM (inactive) with MDA-MB-435. Moreover, the GI50 with BT-549 is 1.81 µM (inactive); in the assay on EKVX it was 3.4 µM (inactive); in the assay on OVCAR-8 it was 1.95 µM (inactive); in the assay with A549, 10.2 µM (inactive); in the assay with KM12, 4.39 µM (inactive); in the assay on U-251 it was 1.79 µM (inactive). Besides, in the assay on LOX IMVI, the GI50 is 1.34 µM (inactive).
Regarding `CCCCC(CCCC)=NNC(=S)SC`, the GI50 was 29.6 µM (inactive) in the assay on K562; 44.2 µM (inactive) in the assay on Hs-578T; 40.6 µM (inactive) with HOP-62; 24.9 µM (inactive) in the assay on UACC-257; 65.3 µM (inactive) in the assay with RXF 393; 20 µM (inactive) in the assay on T47D. Further, the GI50 is 34.3 µM (inactive) in the assay with SF-268; 33.7 µM (inactive) with NCI-H23; 13.1 µM (inactive) in the assay on Malme-3M; 26.2 µM (inactive) with SF-539; 24.3 µM (inactive) in the assay with SNB-19; 17.4 µM (inactive) in the assay on HCT-116. Moreover, the GI50 with MDA-MB-435 is 17.9 µM (inactive); in the assay with BT-549 it was 42 µM (inactive); in the assay with EKVX it was 87.3 µM (inactive); in the assay with OVCAR-8, 19.2 µM (inactive); with A549 it was 26.1 µM (inactive); in the assay on U-251 it was 29.6 µM (inactive). Also, the GI50 in the assay on LOX IMVI was 27.3 µM (inactive).
In the case of `CC(=O)c1ccc2c(c1)CC1(C2)Cc2ccc3c(c2C1=O)CCC3` (stereo unspecified), the GI50 is 15 µM (inactive) in the assay with K562; 31.5 µM (inactive) in the assay on Hs-578T; 38.9 µM (inactive) in the assay with HOP-62; 10.8 µM (inactive) in the assay with UACC-257; 24.7 µM (inactive) in the assay on RXF 393; 12.5 µM (inactive) with T47D. For the same compound, the GI50 was 31.2 µM (inactive) in the assay with SF-268; 31.2 µM (inactive) in the assay on NCI-H23; 18 µM (inactive) with Malme-3M; 27.7 µM (inactive) in the assay with SF-539; 53.1 µM (inactive) in the assay on SNB-19; 28.3 µM (inactive) in the assay with HCT-116. The GI50 in the assay with MDA-MB-435 is 17.9 µM (inactive); in the assay on BT-549, 27.9 µM (inactive); in the assay on A549, 23.4 µM (inactive); in the assay on KM12, 28.2 µM (inactive); with U-251, 34.8 µM (inactive); in the assay on LOX IMVI, 24.5 µM (inactive).
With `COP(=O)(OC)[C@@](O)(c1ccccc1)[C@@H](O)[C@H](O)c1ccccc1`, the GI50 with K562 was 60.1 µM (inactive); with Hs-578T, > 100 µM (inactive); with UACC-257, > 100 µM (inactive); in the assay on RXF 393 it was > 100 µM (inactive); with T47D, > 100 µM (inactive); in the assay on SF-268 it was > 100 µM (inactive). Further, the GI50 in the assay on NCI-H23 is > 100 µM (inactive); in the assay with Malme-3M, > 100 µM (inactive); in the assay on SF-539 it was 38.4 µM (inactive); in the assay on SNB-19, > 100 µM (inactive); in the assay on HCT-116, 36 µM (inactive); with MDA-MB-435 it was > 100 µM (inactive). The GI50 in the assay with BT-549, with EKVX, in the assay on OVCAR-8, with A549, with KM12 and in the assay with U-251 was > 100 µM (inactive) in each case. In addition, the GI50 in the assay with LOX IMVI was 21.1 µM (inactive).
Consider `CC(=O)O[C@@]12CO[C@@H]1C[C@@H](O)[C@@]1(C)C(=O)[C@H](O)C3=C(C)[C@@H](OC(=O)[C@H](O)[C@@H](NC(=O)c4ccccc4)c4ccccc4)C[C@@](O)([C@@H](OC(=O)c4ccccc4)C12)C3(C)C` (stereo partly specified), for which the GI50 was 0.0156 µM (active) with K562; < 0.01 µM (active) with Hs-578T; 0.0893 µM (active) with HOP-62; 0.0217 µM (active) with UACC-257; 0.222 µM (active) in the assay on RXF 393; 0.0272 µM (active) in the assay on T47D. Moreover, the GI50 in the assay on SF-268 is 0.0594 µM (active); in the assay on NCI-H23 it was 0.0379 µM (active); with SF-539 it was < 0.0114 µM (active); in the assay with SNB-19 it was 0.185 µM (active); in the assay with HCT-116, < 0.01 µM (active); in the assay with MDA-MB-435, < 0.01 µM (active). Besides, the GI50 was 0.0243 µM (active) in the assay with BT-549; 4.81 µM (inactive) in the assay with EKVX; 0.0803 µM (active) in the assay on OVCAR-8; 0.083 µM (active) in the assay with A549; < 0.01 µM (active) in the assay with KM12; 0.141 µM (active) in the assay on U-251. In addition, the GI50 in the assay on LOX IMVI is < 0.0303 µM (active).
Regarding `C/C(=C\COc1ccc2ccc(=O)oc2c1)C1=CC(=O)C(C)(C)O1` [GEIPARVARIN], the GI50 is 4.39 µM (inactive) in the assay on K562; 2.51 µM (inactive) in the assay with Hs-578T; 5.47 µM (inactive) with HOP-62; 4.69 µM (inactive) in the assay on UACC-257; 2.01 µM (inactive) with RXF 393; 3.68 µM (inactive) in the assay on T47D. For the same compound, the GI50 was 3.93 µM (inactive) in the assay with SF-268; 3.29 µM (inactive) in the assay with NCI-H23; 5.58 µM (inactive) in the assay with Malme-3M; 2.17 µM (inactive) in the assay with SF-539; 6.15 µM (inactive) with SNB-19; 2.22 µM (inactive) in the assay with HCT-116. Besides, the GI50 is 3.48 µM (inactive) in the assay on MDA-MB-435; 3.69 µM (inactive) with BT-549; 5.64 µM (inactive) in the assay with EKVX; 7.11 µM (inactive) in the assay with OVCAR-8; 7.67 µM (inactive) in the assay on A549; 4.3 µM (inactive) with U-251. Moreover, the GI50 in the assay with LOX IMVI was 1.89 µM (inactive).
